Source: patent US20190300892A1, “CONSTRUCTS AND METHODS FOR BIOSYNTHESIS OF GALANTHAMINE” (priority 2014, published 2019)
Entries after “also recorded” stand apart in the source; their conditions may differ. Like-named read-outs stand apart in the source and are kept apart here.

Columns and labels:
CYP96T1 = molecular target: T1, CYP96T1 (Narcissus aff. pseudonarcissus MK-2014, UniProt A0A140IL90); type: biochemical; conditions: for product formation as CYP96T1 substrate: LC-MS/MS
T1 construct: made in house; host or cells: Spodoptera frugiperda Sf9 cells (Baculogold baculovirus, pVL1392)
T1 sequence (A0A140IL90 1-513): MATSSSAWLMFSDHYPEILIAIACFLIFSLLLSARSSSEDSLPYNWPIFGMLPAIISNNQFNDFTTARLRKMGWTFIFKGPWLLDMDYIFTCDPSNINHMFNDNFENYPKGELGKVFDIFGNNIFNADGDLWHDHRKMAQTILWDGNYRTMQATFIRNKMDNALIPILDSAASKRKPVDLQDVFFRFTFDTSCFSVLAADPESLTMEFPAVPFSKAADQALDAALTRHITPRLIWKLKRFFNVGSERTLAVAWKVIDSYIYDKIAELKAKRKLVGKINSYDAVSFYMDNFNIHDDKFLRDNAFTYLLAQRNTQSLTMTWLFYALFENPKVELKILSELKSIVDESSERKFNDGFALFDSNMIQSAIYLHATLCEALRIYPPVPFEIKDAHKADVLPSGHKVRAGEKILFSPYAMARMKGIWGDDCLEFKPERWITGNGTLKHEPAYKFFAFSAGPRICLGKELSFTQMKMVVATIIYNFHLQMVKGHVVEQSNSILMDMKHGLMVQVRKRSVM
Description: Recombinant protein production of NpN4OMT and norbelladine synthase/reductase in 1 L of E. coli and purification with TALON resin followed standard methods. No proteases were added to the protein extract, and desalting was performed with PD-10 columns from GE Healthcare. Protein quantity was determined according to Bradford; purity was monitored by SDS-PAGE. The E. coli cell line containing the hexahistidine-tagged methylthioadenosine/S-adenosylhomocysteine nucleosidase (Pfs) construct from Choi-Rhee and Cronan's work was used to purify Pfs protein. CYP96T1 was co-expressed with cytochrome P450 reductase in Spodoptera frugiperda Sf9 cells using Baculogold baculoviurus (BD Biosciences). Whole cell lysates were used in CYP96T1 enzyme assays.
CYP96T1 assays contained 30 mM KPO4 pH 8.0, 1.25 mM NADPH, 10 μM substrate and 70 μl of virus infected Sf9 cell suspension in 200 μl total volume. The assays were incubated for 2-4 hr at 30° C. 4′-O-metylnorbelladine was used as an initial test compound. Substrate specificity tests were done on 4′-O-methyl-N-methylnorbelladine, norbelladine, N-methylnorbelladine, 3′-O-methylnorbelladine, 3′,4′-O-dimethylnorbelladine, haemanthamine, (S)-coclaurine, (R)-coclaurine and mixed (10aR,4bR)- and (10aS,4bS)-noroxomaritidine. Assays derivatized with sodium borohydride were incubated 2 hr at 30° C. followed by addition of 0.5 volumes 0.5 M sodium borohydride in 0.5 M sodium hydroxide and incubated 30 min at RT. The CYP96T1 assay resolved on a Chiral-CBH column and assays measured with HPLC used fresh CYP96T1 and CPR expressing SF9 cell protein prepared using re-amplified virus. Enzyme assays on all substrates were extracted as previously described and run on a QTRAP 4000 coupled to a IL-20AC XR prominence liquid auto sampler, 20AD XR prominence liquid chromatograph and Phenomenex Luna 5 μm C8(2) 250×4.60 mm column. HPLC gradient and MS settings were as previously described for NpN4OMT. Assay specific MS/MS parameters are presented in
Table 4. Multiple Reaction Monitoring (MRM) parameters for relative quantification of (10aR,4bR)- and (10aS,4bS)-noroxomaritidine, N-demethylnarwedine, narwedine and the two unknown compounds are presented in Table5. For analysis of product chirality, a Chrom Tech, Inc. Chiral-CBH 100×4.0 mm, 5 μM column was used with a 30 min isocratic flow of 2.5% HPLC grade ethanol and 10 mM ammonium acetate with pH adjusted to 7.0 with ammonium hydroxide.

NpN4OMT1 = molecular target: T2, NpN4OMT1 (Narcissus aff. pseudonarcissus MK-2014, UniProt A0A077EWA5); type: biochemical; conditions: for enzymatic activity upon addition of divalent cation: cation dependence test, 5 min assays, 4 μM norbelladine, 37° C.
T2 construct: made in house; host or cells: E. coli BL21(DE3) Codon Plus RIL
T2 sequence (A0A077EWA5 whole entry): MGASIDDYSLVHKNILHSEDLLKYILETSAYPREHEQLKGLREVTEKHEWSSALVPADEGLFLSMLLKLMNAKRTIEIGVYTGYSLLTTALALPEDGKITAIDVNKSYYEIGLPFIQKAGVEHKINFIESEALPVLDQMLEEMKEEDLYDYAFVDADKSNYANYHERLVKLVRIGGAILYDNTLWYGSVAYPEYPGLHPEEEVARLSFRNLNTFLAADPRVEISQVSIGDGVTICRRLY
Description: Enzyme assays for initial testing of NpN4OMT1 contained 10 μg of pure protein with 200 μM AdoMet, 100 μM norbelladine and 30 mM potassium phosphate buffer pH 8.0 in 100 μl. The assays were incubated for 2 hr at 30° C. The vector control was an E. coli extract purified with TALON in the same way as the methyltransferase protein. For the vector control assay, an equal volume of the pure vector control extract was substituted for the NpN40MT1 protein in the enzyme assay. These assays were quenched by adjusting the pH to 9.5 with two volumes of sodium bicarbonate and extracted with two volumes ethyl acetate two times. After drying, the extracts were re-suspended in the initial mobile phase of the HPLC program. The HPLC separation of the assays was performed using a phenomenex Luna C8(2) 5 m 250×4.6 mm column with solvent A (0.1% formic acid in H2O) and solvent B (acetonitrile). The program started with 10% solvent B and a flow rate of 0.8 ml/min, a linear gradient began at 2 min to 30% at 15 min, 90% at 15.1 min, 90% at 20 min, 10% at 21 min and 10% at 28 min. Injection volume was 20 μl using a Waters auto-sampler. Waters UV detector was set to 277 nm.
After optimization of the NpN4OMT assay, the buffer was changed to […] glycine at pH 8.8, with 5 mM of MgCl2 added and the temperature was increased to 37° C. in 100 μl total reaction volume. When performing kinetic assays, the E. coli enzyme Pfs was added to break down SAH and prevent product inhibition. Papaverine was used as an internal standard.
With the same solvent system as for screening enzyme assays, the HPLC program started with 20% B and a flow rate of 0.8 ml/min, a linear gradient began at 2 min to 25.4% B at 7 min, 90% at 7.2 min, 90% at 9 min, 20% at 9.1 min and 20% at 14 min. A 4000 QTRAP mass spectrometer coupled to the same LC column and time program as used in HPLC was used to collect all compound mass and fragmentation data.
For NpN4OMT norbelladine kinetics an MRM program in positive ion mode was used to monitor the following fragments 260.00 [M+H]^+/138.00 [M−C8H9O]^+• m/z, 260.00 [M+H]^+/121.00 [M−C7H8NO2]^+• m/z, 274.00 [M+H]^+/137.00 [M+H—C8H9O2]^+ m/z, 274.00 [M+H]^+/122.00 [M+H—C8H10NO2]^+ m/z. The fragments with 260.00 [M+H]^+ m/z and 274.00 [M+H]^+ m/z molecular ions were replaced when looking at N-methylnorbelladine for 274.00 [M+H]^+/152.10 [M−C8H9O]^+• m/z, 274.00 [M+H]^+/121.00 [M−C9H12NO2]^+• m/z, 288.00 [M+H]^+/150.10 [M−C8H9O2]^+• m/z and 288.20 [M+H]^+/137.00 [M−C9H12NO]^+• m/z. Papaverine internal standard was monitored with the following fragments 340.40[M+H]^+/324.20 [M−CH3]^+• m/z and 340.40 [M+H]^+/202.10 [M−C8H9O2]^+• m/z. When conducting dopamine kinetics, galanthamine was used as the internal standard and samples were not ethyl acetate extracted prior to LC/MS/MS analysis. To remove protein, two volumes of acetonitrile were added followed by 1 hr at −20° C. and 10 min centrifugation at 16,100×g, 4° C. The supernatant was dried under vacuum and re-suspended in the starting mobile phase before analysis. The HPLC time program was changed to start at 5% solvent B with solution going to waste until 3.9 min, at 5 min start linear gradient to 25% B at […], 90% B at 9.5 min, 90% B at 11 min, 5% B at 11.1 min and 5% B at 16 min. Ions monitored in the MRM were 168.00 [M+H]^+/151.00 [M+H-OH]^+ m/z and 168.00 [M+H]^+/119.00 [M−OH—OCH3]^+• m/z. AdoMet steady state kinetic parameters were determined with norbelladine as the saturated substrate. Product was quantitated using HPLC with the 28 min program used for screening enzyme assays. Product for assays on the additional NpN4OMT variants was detected with this same 28 min program on HPLC.
When conducting kinetic experiments the K, was at least five fold higher than the minimum concentration of substrate and fivefold lower than the maximum concentration of substrate tested.

COc1cc(CNCCc2ccc(O)cc2)ccc1O [3′-O-Methylnorbelladine]
product formation as CYP96T1 substrate (CYP96T1): products were not detected

COc1ccc(CN(C)CCc2ccc(O)cc2)cc1O [4′-O-Methyl-N-methylnorbelladine]
product formation as CYP96T1 substrate (CYP96T1): One product is enzymatically produced

Oc1ccc(CCNCc2ccc(O)c(O)c2)cc1 [norbelladine]
product formation as CYP96T1 substrate (CYP96T1): Product formation is not observed

NCCc1ccc(O)c(O)c1 [dopamine]
product formation / activity as NpN4OMT substrate (NpN4OMT1): served as a substrate, but with less efficiency
kcat (NpN4OMT1; substrate of NpN4OMT1, ± = Standard error, ND = Not detected): 0.06 ± 0.0025 s⁻¹
Km (NpN4OMT1; substrate of NpN4OMT1, ± = Standard error, ND = Not detected, AdoMet determined with norbelladine as the saturated substrate): 7.3 ± 2.7 µM

COc1cc2c(cc1O)[C@H](Cc1ccc(O)cc1)NCC2 [(S)-Coclaurine]
product formation as CYP96T1 substrate (CYP96T1): yield products with a mass −2 m/z

CN(CCc1ccc(O)cc1)Cc1ccc(O)c(O)c1 [N-methylnorbelladine]
product formation as CYP96T1 substrate (CYP96T1): Product formation is not observed

COc1cc(C=O)ccc1O [vanillin]
product formation / activity as NpN4OMT substrate (NpN4OMT1; text statement): Products were not detected

O=Cc1ccc(O)c(O)c1 [3,4-dihydroxybenzaldehyde]
product formation / activity as NpN4OMT substrate (NpN4OMT1; text statement): Products were not detected; also recorded: lack of enzymatic activity

COc1cc2c(cc1O)[C@@H](Cc1ccc(O)cc1)NCC2 [(R)-Coclaurine]
product formation as CYP96T1 substrate (CYP96T1): yield products with a mass −2 m/z

O=C(O)/C=C/c1ccc(O)c(O)c1 [caffeic acid]
product formation / activity as NpN4OMT substrate (NpN4OMT1): Products were not detected

[Mg+2] [magnesium]
enzymatic activity upon addition of divalent cation (NpN4OMT1): increased fourfold more

NCCc1ccc(O)cc1 [tyramine]
product formation / activity as NpN4OMT substrate (NpN4OMT1; text statement): Products were not detected
product formation / activity as NpN4OMT substrate (NpN4OMT1; text statement, listed as Tyramine): not methylated

[Co+2] [cobalt]
enzymatic activity upon addition of divalent cation (NpN4OMT1): enzymatic activity improved

COc1ccc(CNCCc2ccc(O)cc2)cc1O [4′-O-Methylnorbelladine]
product formation as CYP96T1 substrate (CYP96T1): C—C phenol coupled
kcat (CYP96T1; substrate of CYP96T1): 0.25 ± 0.0338 s⁻¹
kcat (CYP96T1; substrate of CYP96T1, production of noroxomaritidine): 15.0 ± 2.03 L/min
Km (CYP96T1; substrate of CYP96T1, production of (10aR,4bR)- and (10aS,4bS)-noroxomaritidine, Michaelis-Menten with substrate inhibition): 1.13 ± 0.5 µM

COc1ccc(CNCCc2ccc(O)cc2)cc1OC [3′,4′-O-Dimethylnorbelladine]
product formation as CYP96T1 substrate (CYP96T1): products were not detected
